Measured values as given in patent US12306191B2, “Composition for diagnosis of degenerative neurological diseases” (KYUNGPOOK NATIONAL UNIVERSITY INDUSTRY—ACADEMIC COOPERATION …, priority 2018, dated 2025).

How the values were obtained:
[1] = test system: APP/PS1 mice; assay: Immunofluorescence of microglia (Iba1) and astrocytes (GFAP) in brain cortex of injected APP/PS1 mice; format: in vivo, mouse; details: 7-month-old APP/PS1 mice, i.p. daily 4 weeks, 5 mg/kg N-acetyl sphingosine, 1 mg/kg FTY720, 3 uM S1P; for microglia compared to APP/PS1 mice: FIG. 9a; for astrocytes compared to APP/PS1 mice: FIG. 9b
Method: (§1) After the cerebrum and the hippocampus of a mouse were immobilized, anti-20G10 against amyloid-β (Aβ) 42 (mouse, 1:1000) and anti-G30 against Aβ 40 (rabbit, 1:1000), anti-MAP2 (chicken, 1:2000), anti-Synaptophysin (mouse, 1:100), anti-Synapsin1 (rabbit, 1:500), anti-PSD95 (mouse, 1:100), anti-Iba-1 (rabbit, 1:500), and anti-GFAP (rabbit, 1:500) were incubated together. The sites were analyzed using a confocal laser scanning microscope or an Olympus BX51 microscope equipped with Fluoview SV1000 imaging software (Olympus FV1000, Japan). Percentages of areas of the stained sites to an area of total tissues were quantified using Metamorph software (Molecular Devices).
(§2) In order to measure neuroinflammatory resolution factor, nerve cells from the mouse's cerebrum were incubated and then treated with 10 nM N-acetyl sphingosine 1 phsosphate (Toronto Research chemicals, C262710) and N-acetyl sphingosine (Sigma, 01912) to prepare CM. For COX2 acetylation analysis, nerve cells were incubated from the mouse's cerebrum and treated with 2uCi [^14C] N-acetyl sphingosine (ARC, ARC1024) and then prepared. In addition, for an in vivo experiment, 5 mg/kg N-acetyl sphingosine (Sigma, 01912), 1 mg/kg FTY720, and 3 uM S1P were injected into 7-month-old APP/PS1 mice daily for 4 weeks through intraperitoneal injection.
The present inventors confirmed AD lesions by injecting N-acetyl sphingosine, one of COX2 acetylating agents identified through the above experiment, into an APP/PS1 animal model. First, in order to determine an effect of N-acetyl sphingosine on neuroinflammatory response by secreting the neuroinflammatory resolution factor, changes in microglia and astrocytes were observed. […] However, when sphingosine derivatives FTY720 and S1P were injected, there was no difference in the activity of microglia and astrocytes compared to the Alzheimer's animal model, and there was no effect of reducing Aβ deposition and improving memory (FIGS. 9a and 9b).

[2] = test system: APP/PS1 nerve cells; assay: Secretion of neuroinflammatory resolution factor in APP/PS1 nerve cells treated with COX2 acetylating agent; format: cell-based, mouse; details: 10 nM, FIG. 8b
Method: A commercially available ELISA kit (Biosource) was used, and the hemispheres of mice were homogenized and added in a buffer containing 0.02 M of guanidine to prepare a sample for Aβ ELISA. In order to measure neuroinflammatory resolution factor, nerve cells from the mouse cerebrum were incubated to prepare conditioned media (CM). Thereafter, according to the manufacturer's manual, ELISA for Aβ and SPM was performed.
as §2
First, in order to confirm whether the selected compounds promote the secretion of neuroinflammatory resolution factor in nerve cells, APP/PS1 nerve cells were treated with N-acetyl sphingosine 1 phsosphate or N-acetyl sphingosine, and then the expression levels of the neuroinflammatory resolution factor were confirmed. As a result, it was confirmed that the expression levels of LxA4 and RvE1 in nerve cells of APP/PS1 mice were recovered when treated with N-acetyl sphingosine 1 phsosphate or N-acetyl sphingosine (FIG. 8b).

[3] = test system: APP/PS1 mice; assay: Thioflavin S staining of Aβ plaques in brain of injected APP/PS1 mice; format: in vivo, mouse; details: 7-month-old APP/PS1 mice, i.p. daily 4 weeks; 5 mg/kg N-acetyl sphingosine, 1 mg/kg FTY720, 3 uM S1P; FIG. 9c
Method: as §1
as §2, with “injection. […]” for “injection.”

[4] = test system: APP/PS1 mice; assay: Morris Water Maze test of injected APP/PS1 mice; format: in vivo, mouse; details: 7-month-old APP/PS1 mice, i.p. daily 4 weeks; 5 mg/kg N-acetyl sphingosine, 1 mg/kg FTY720, 3 uM S1P; FIG. 9d
Method: In order to confirm potential effects on learning and memory, Morris water maze (MWM) and fear conditioning tests were performed. In the MWM, the mouse learned a task 4 times a day for 10 days, a platform was removed on day 11, and a probe trial was performed. In the fear conditioning, on day 1, the mouse was added in a conditioning chamber, and sound stimulation (10 kHz, 70 dB) and electrical stimulation (0.3 mA, 1 s) were applied. On day 2, the memory on a space was confirmed without stimulation in the same conditioning chamber as day 1, and on day 3, a memory test for fear was performed when only the sound stimulation was applied in another conditioning chamber. An open field test was performed to evaluate motor ability and immediate activity. In the open field test, the mouse was placed in a quadrangular box for 10 minutes and then overall motor ability and time and distances were measured.
as §2, with “In addition, for an in vivo experiment, 5 mg/kg N-acetyl sphingosine (Sigma, 01912), 1 mg/kg FTY720, and 3 uM S1P were injected into 7-month-old APP/PS1 mice daily for 4 weeks through intraperitoneal injection.” left out

[5] = target: T1, COX2 (Homo sapiens, UniProt P35354); assay: LC-MS/MS identification of the acetylation site of COX2; format: biochemical; details: FIG. 8d
T1 sequence (P35354 18-604): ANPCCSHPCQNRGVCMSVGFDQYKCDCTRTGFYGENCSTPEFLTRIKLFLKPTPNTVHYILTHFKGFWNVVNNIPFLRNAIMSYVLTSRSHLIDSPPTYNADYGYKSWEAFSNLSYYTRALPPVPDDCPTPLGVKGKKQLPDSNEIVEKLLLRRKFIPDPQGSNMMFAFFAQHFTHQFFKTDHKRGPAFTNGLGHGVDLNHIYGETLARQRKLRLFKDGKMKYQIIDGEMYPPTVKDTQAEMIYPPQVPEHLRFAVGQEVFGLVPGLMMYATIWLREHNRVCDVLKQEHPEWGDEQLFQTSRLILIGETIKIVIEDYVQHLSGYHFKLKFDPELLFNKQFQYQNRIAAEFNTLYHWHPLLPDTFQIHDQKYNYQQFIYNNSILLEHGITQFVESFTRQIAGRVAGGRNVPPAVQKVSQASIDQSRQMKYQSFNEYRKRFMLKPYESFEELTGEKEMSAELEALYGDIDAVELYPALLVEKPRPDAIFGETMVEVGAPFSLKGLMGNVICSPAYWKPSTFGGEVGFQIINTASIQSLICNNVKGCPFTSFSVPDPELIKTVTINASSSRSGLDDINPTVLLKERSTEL
Method: To confirm an acetylation site of COX2, a COX2 enzyme was precipitated with trichroloacetic acid (Merck) and dried. The dried extract was resuspended in 10 μL of a 5 M urea solution, and a 0.1 M ammonium bicarbonate buffer was incubated at 37° C. with 1 μg trypsin (Promega) for 16 hours. Thereafter, the sample was treated with 1 M DTT (GE Healthcare) at room temperature for 1 hour and then alkylated with 1M iodoacetamide (Sigma) for 1 hour. A protein sample was loaded onto a ZORBAX 300SB-C18 column for sequencing. Peptides were identified with BioTools 3.2 SR5 (Bruker Daltonics).
In addition, it was confirmed that serine 565 (S565) for a peptide 560-[…]-575 of COX2 was acetylated in the presence of N-acetyl sphingosine (FIG. 8d).

[6] = target: T1, COX2; assay: Western blot of recombinant COX2 protein with ac-S565 antibody after aspirin or N-AS treatment; format: biochemical; details: FIG. 10
Method: (§3) In addition, a Western blot sample was prepared by reacting a recombinant COX2 protein with aspirin and N-acetyl sphingosine (Sigma, 01912, N-AS). In addition, microglia were isolated from the cerebra of wild-type and APP/PS1 9-month-old mice to prepare a Western blot sample, and microglia (Applied Biologics Materials, USA) were incubated with amyloid beta, and then a Western blot sample was prepared. The prepared Western blot sample was subjected to electrophoresis on a polyacrylamide gel to isolate proteins, transferred to a nitrocellulose filter, and then bound with anti-ac-S565 (rabbit, 1:500), anti-COX2 (rabbit, 1:1,000, Abcam), and anti-actin (mouse, 1:1,000, Santa Cruz) antibodies, and then bands were shaped using secondary antibodies, and quantified and analyzed using ImageJ (National Institutes of Health, USA).

[7] = test system: COX2; assay: COX2 acetylation analysis with [14C] N-acetyl sphingosine; format: cell-based, mouse; details: 2uCi [14C] N-acetyl sphingosine; FIG. 8c
Method: as §2

[8] = target: SphK1 (Homo sapiens, UniProt Q9NYA1); details: read-out: KM of acetyl group binding to SphK1; in the presence of 10 mM sphingosine; FIG. 1a
SphK1, sequence (Q9NYA1 whole entry, species assumed): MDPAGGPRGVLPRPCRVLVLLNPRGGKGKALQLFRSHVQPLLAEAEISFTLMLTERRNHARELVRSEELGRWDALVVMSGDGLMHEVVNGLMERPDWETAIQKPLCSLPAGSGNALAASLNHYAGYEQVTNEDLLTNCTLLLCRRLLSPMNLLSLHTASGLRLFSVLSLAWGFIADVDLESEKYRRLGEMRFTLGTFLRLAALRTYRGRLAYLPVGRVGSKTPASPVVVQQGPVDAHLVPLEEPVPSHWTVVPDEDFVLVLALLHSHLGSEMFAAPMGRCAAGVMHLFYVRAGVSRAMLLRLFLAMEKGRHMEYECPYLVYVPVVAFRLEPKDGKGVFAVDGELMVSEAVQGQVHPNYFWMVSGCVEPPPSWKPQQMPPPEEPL

[9] = test system: human-derived microglia; assay: Fluorescence immunostaining of COX2 and ac-S565 in human-derived microglia treated with amyloid beta; format: cell-based; details: FIGS. 13a, 13b
Method: In addition, cerebral tissues of wild-type and APP/PS1 9-month-old mice and human-derived microglia were incubated together with anti-ac-S565 (rabbit, 1:100), anti-COX2 (mouse, 1:500, Thermo Fisher Scientific), and anti-Iba1 (goat, 1:500, Abcam). In the cerebral tissues and the human-derived microglia, percentages of cells stained with anti-ac-S565, anti-COX2 and anti-Iba1 among cells stained with anti-COX2 and anti-Iba1 were quantified and analyzed using MetaMorph (Molecular Devices, USA).
The present inventors created a neuroinflammatory environment by treating human-derived microglia with amyloid beta, and then confirmed the level of S565 acetylation of COX2 through fluorescence immunostaining.

[10] = test system: human-derived microglia; assay: Western blotting of COX2 and ac-S565 in human-derived microglia treated with amyloid beta; format: cell-based; details: FIGS. 14a, 14b
Method: as §3
The present inventors created a neuroinflammatory environment by treating human-derived microglia with amyloid beta, and then reconfirmed the level of S565 acetylation of COX2 through Western blotting.

CCCCCCCCc1ccc(CCC(N)(CO)CO)cc1 [FTY720]
microglia compared to APP/PS1 mice [1]: no difference
astrocytes compared to APP/PS1 mice [1]: no difference

CCCCCCCCCCCCC/C=C/[C@@H](O)[C@H](COP(=O)(O)O)NC(C)=O [N-acetyl sphingosine 1 phsosphate]
expression level of LxA4 [2]: recovered
expression level of RvE1 [2]: recovered

CCCCCCCCCCCCC/C=C/[C@@H](O)[C@H](CO)NC(C)=O [N-acetyl sphingosine]
amount of Aβ / Aβ deposition compared to APP/PS1 mice [3]: significantly lowered
memory and cognition [4]: improved
expression level of LxA4 [2]: recovered
expression level of RvE1 [2]: recovered
acetylation of serine 565 (S565) of COX2 peptide 560-575 [5]: acetylated
ac-S565 band of treated COX2 in Western blot (S565 acetylation) [6]: strongly shown
COX2 acetylation compared with sample mixed with SphK1, acetyl-CoA and sphingosine [7]: more acetylation
microglia compared to APP/PS1 mice [1]: remarkable decrease
astrocytes compared to APP/PS1 mice [1]: remarkable decrease

CCCCCCCCCCCCC/C=C/[C@@H](O)[C@@H](N)COP(=O)(O)O [S1P, sphingosine-1-phosphate]
amount of Aβ / Aβ deposition compared to APP/PS1 mice [3]: no effect
memory and cognition [4]: no effect
microglia compared to APP/PS1 mice [1]: no difference
astrocytes compared to APP/PS1 mice [1]: no difference

CC(=O)SCCNC(=O)CCNC(=O)[C@H](O)C(C)(C)COP(=O)(O)OP(=O)(O)OC[C@H]1O[C@@H](n2cnc3c(N)ncnc32)[C@H](O)[C@@H]1OP(=O)(O)O [acetyl-CoA]
Km [8]: 58.2 µM

CC(=O)Oc1ccccc1C(=O)O [aspirin]
ac-S565 band of treated COX2 in Western blot (S565 acetylation) [6]: hardly detected

amyloid beta: amyloid beta used to treat human-derived microglia to create a neuroinflammatory environment
S565 acetylation of COX2 in microglia [9]: decreased
expression of COX2 in microglia [9]: increased
S565 acetylation of COX2 in microglia [10]: decreased
expression of COX2 in microglia [10]: increased
